US20230399342A1 (Incyte Corporation, priority 2022, published 2023)

Experiments:
DGKα = DGKα (Homo sapiens (Human), UniProt P23743); test: In vitro DGKα inhibition assay (ADP-Glo); format: biochemical; settings: His-tagged human recombinant enzyme, 0.1 nM DGKα, 50 μM ATP, 20 μM DLG, 90 minute incubation
Description: (§1) The DGKα and DGKξ biochemical reactions were performed using His-tagged human recombinant enzymes (Signal Chem, DGKα, #D21-1OBH; DGKξ, #D30-10H)) and DLG (Dilauroyl-sn-glycerol) lipid substrate (Signal Chem, #D430-59). ADP-Glo assay was performed using ADP-Glog™ kinase Assay kit (Promega, #V9104). The reactions were carried out in assay buffer containing 40 mM Tris, pH 7.5, 0.1% CHAPS, 0.1% Prionex, 40 mM NaCl, 5 mM MgCl2, 1 mM CaCl2, and 1 mM DTT. DGKα reactions contained 0.1 nM DGKα, 50 μM ATP, and 20 μM DLG. And DGKC reactions contained 0.4 nM DGK, 30 μM ATP, and 20 μM DLG.
(§2) For compound inhibition studies, 40 nL test compound in DMSO was added to wells of white polystyrene plates in 384-well (Greiner, #784075) or 1536-well format (Greiner, #782075). Compounds were added with top concentration of 2 mM with 11 point, 3-fold dilution series. Enzyme solution (contains 2×DGK enzyme concentration in Ix assay buffer) was added to the plate in 2 μL/well volume, followed by 2 μL/well of substrate solution (contains 2×concentration of ATP and DLG substrate in Ix assay buffer). Plates were then centrifuged for 1 min at 1200 RPM and sealed or lidded. For 4 μL reaction volume, test compounds were therefore diluted 100× to final top concentration of 20 μM. After 90 minute incubation, reactions were quenched by addition of 2 μL/well Promega ADP-Glo Reagent, followed by centrifugation and lidding. After 60 min incubation, 2 μL/well Promega Kinase Detection Reagent was added, plates centrifuged, and incubated for 30 min. Plates were then read using Luminescence method on BMG PHERAstar FSX plate reader. Percent inhibition was calculated and IC50s were determined using 4-parameter fit in Genedata Screener. Labcyte Echo acoustic dispenser was used for compound addition, and Formulatrix Tempest liquid handler was used for all reagent dispenses.

DGKζ = DGKζ (Homo sapiens (Human), UniProt Q13574); test: In vitro DGKζ inhibition assay (ADP-Glo); format: biochemical; settings: His-tagged human recombinant enzyme, 0.4 nM DGK, 30 μM ATP, 20 μM DLG, 90 minute incubation
Sequence of DGKζ (Q13574 whole entry): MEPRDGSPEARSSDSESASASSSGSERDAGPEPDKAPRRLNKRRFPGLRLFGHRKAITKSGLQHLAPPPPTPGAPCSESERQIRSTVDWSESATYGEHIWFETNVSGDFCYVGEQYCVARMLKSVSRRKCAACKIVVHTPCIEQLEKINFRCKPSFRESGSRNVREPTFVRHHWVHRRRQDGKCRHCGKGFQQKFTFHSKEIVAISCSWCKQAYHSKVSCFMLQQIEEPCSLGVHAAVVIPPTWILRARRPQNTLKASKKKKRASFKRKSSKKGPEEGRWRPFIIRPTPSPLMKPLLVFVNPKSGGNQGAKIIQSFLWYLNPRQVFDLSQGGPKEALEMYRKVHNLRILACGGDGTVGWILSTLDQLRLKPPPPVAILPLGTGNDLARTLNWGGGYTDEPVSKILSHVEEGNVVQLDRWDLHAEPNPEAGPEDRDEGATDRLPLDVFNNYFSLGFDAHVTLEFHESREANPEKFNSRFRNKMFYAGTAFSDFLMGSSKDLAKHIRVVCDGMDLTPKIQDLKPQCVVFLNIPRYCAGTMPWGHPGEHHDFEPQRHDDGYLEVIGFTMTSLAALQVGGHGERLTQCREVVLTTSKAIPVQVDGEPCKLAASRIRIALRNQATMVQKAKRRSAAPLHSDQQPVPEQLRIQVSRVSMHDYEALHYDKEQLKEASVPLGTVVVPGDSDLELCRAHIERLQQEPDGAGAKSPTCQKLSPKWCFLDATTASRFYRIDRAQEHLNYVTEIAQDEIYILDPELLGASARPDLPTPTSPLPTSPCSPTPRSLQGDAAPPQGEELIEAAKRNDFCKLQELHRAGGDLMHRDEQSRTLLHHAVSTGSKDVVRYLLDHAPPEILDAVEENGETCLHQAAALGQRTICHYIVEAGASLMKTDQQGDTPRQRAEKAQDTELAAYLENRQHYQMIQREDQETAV
Description: as §1, §2

Sequence of DGKα (P23743 whole entry): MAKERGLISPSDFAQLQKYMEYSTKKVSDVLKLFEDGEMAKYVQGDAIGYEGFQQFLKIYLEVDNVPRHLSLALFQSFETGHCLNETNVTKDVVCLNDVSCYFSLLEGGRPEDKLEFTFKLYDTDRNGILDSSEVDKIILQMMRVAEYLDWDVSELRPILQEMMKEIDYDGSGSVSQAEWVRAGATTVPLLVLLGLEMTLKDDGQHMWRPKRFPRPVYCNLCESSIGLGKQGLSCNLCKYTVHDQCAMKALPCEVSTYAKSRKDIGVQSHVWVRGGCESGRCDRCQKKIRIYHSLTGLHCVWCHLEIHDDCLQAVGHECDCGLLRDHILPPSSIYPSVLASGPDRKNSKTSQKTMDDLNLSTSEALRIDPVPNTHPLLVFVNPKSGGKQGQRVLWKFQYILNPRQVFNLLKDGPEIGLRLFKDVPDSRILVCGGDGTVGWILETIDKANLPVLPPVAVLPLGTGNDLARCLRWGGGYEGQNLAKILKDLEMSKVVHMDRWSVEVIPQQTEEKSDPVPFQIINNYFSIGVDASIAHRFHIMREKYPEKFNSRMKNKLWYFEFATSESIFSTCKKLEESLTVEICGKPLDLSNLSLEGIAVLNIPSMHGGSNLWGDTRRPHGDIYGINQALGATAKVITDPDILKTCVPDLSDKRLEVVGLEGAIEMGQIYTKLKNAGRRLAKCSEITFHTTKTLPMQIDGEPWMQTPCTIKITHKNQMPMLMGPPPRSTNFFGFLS

Row | SMILES | IC50 (DGKα) [nM] | IC50 (DGKζ) [nM]
1 | CC[C@@H]1CN(c2nc3nncn3c3c2nc(C)n3C[C@@H]2CCCO2)[C@@H](C)CN1C(c1ccc(F)cc1)c1ccc(C#N)cc1 (stereo partly drawn) [Example 132, 4-(((2R,5S)-2-Ethyl-5-methyl-4-(2-methyl-1-(((S)-tetrahydrofuran-2-yl)methyl)-1H-[1,2,4]triazolo[3,4-b]purin-4-yl)piperazin-1-yl)(4-fluorophenyl)methyl)benzonitrile] | ≤ 20 | ≤ 20
2 | Cc1nc2c(N3C[C@@H](C)N([C@H](c4ccc(F)cc4)c4ccc(F)c(C(F)(F)F)n4)C[C@@H]3C)nc3nncn3c2n1C[C@@H]1CCCO1 (single isomer, unassigned) [Example 104] | ≤ 20 | ≤ 20
3 | Cc1nc2c(N3C[C@@H](C)N([C@@H](c4cccc(F)c4)C(C)C)C[C@@H]3C)nc3nncn3c2n1C[C@@H]1CCCO1 [Example 95, 4-((2S,5R)-4-((R)-1-(3-fluorophenyl)-2-methylpropyl)-2,5-dimethylpiperazin-1-yl)-2-methyl-1-(((S)-tetrahydrofuran-2-yl)methyl)-1H-[1,2,4]triazolo[3,4-b]purine] | ≤ 20 | ≤ 20
4 | Cc1nc2c(N3C[C@@H](C)N([C@H](c4ccc(OC(F)F)cc4F)C(C)C)C[C@@H]3C)nc3nncn3c2n1C[C@@H]1CCCO1 [Example 75, 4-((2S,5R)-4-((S)-1-(4-(Difluoromethoxy)-2-fluorophenyl)-2-methylpropyl)-2,5-dimethylpiperazin-1-yl)-2-methyl-1-(((S)-tetrahydrofuran-2-yl)methyl)-1H-[1,2,4]triazolo[3,4-b]purine] | ≤ 20 | ≤ 20
5 | C[C@@H]1CN(c2nc3nncn3c3c2ncn3CCN(C)C)[C@@H](C)CN1[C@@H](c1ccc(C(F)(F)F)cc1)c1ccc(C(F)(F)F)cn1 [Example 101, 2-(4-((2S,5R)-2,5-Dimethyl-4-((S)-(4-(trifluoromethyl)phenyl)(5-(trifluoromethyl)pyridin-2-yl)methyl)piperazin-1-yl)-1H-[1,2,4]triazolo[3,4-b]purin-1-yl)-N,N-dimethylethan-1-amine] | ≤ 20 | ≤ 20
6 | Cc1nc2c(N3C[C@@H](C)N([C@@H](c4ccc(F)c(Cl)c4)C(C)C)C[C@@H]3C)nc3nncn3c2n1C[C@@H]1CCCO1 (single isomer, unassigned) [Example 87] | ≤ 20 | ≤ 20
7 | Cc1nc2c(N3C[C@@H](C)N([C@H](c4ccc(Cl)c(Cl)c4)C4CC(F)(F)C4)C[C@@H]3C)nc3nncn3c2n1C[C@@H]1CCCO1 [Example 48, 4-((2S,5R)-4-((S)-(3,4-Dichlorophenyl)(3,3-difluorocyclobutyl)methyl)-2,5-dimethylpiperazin-1-yl)-2-methyl-1-(((S)-tetrahydrofuran-2-yl)methyl)-1H-[1,2,4]triazolo[3,4-b]purine] | ≤ 20 | ≤ 20
8 | C[C@@H]1CN(c2nc3nncn3c3scnc23)[C@@H](C)CN1C(c1ccc(F)cc1)c1ccc(F)cc1 [Example 1, 4-((2S,5R)-4-(Bis(4-fluorophenyl)methyl)-2,5-dimethylpiperazin-1-yl)thiazolo[4,5-e][1,2,4]triazolo[4,3-a]pyrimidine] | ≤ 20 | 20 to 200
9 | Cc1nc2c(N3C[C@@H](C)N([C@@H](c4ccc(OC(F)(F)F)cc4)C(C)C)C[C@@H]3C)nc3nncn3c2n1C[C@@H]1CCCO1 [Example 119, 4-((2S,5R)-2,5-dimethyl-4-((R)-2-methyl-1-(4-(trifluoromethoxy)phenyl)propyl)piperazin-1-yl)-2-methyl-1-(((S)-tetrahydrofuran-2-yl)methyl)-1H-[1,2,4]triazolo[3,4-b]purine] | ≤ 20 | ≤ 20

Results, then the molecule that gave them:

Row | IC50 (DGKα) [nM] | IC50 (DGKζ) [nM] | SMILES
10 | ≤ 20 | 20 to 200 | Cc1nc2c(N3C[C@@H](C)N([C@@H](c4ccc(OC(F)F)cc4)C(C)C)C[C@@H]3C)nc3nncn3c2n1C[C@@H]1CCCO1 [Example 80, 4-((2S,5R)-4-((R)-1-(4-(difluoromethoxy)phenyl)-2-methylpropyl)-2,5-dimethylpiperazin-1-yl)-2-methyl-1-(((S)-tetrahydrofuran-2-yl)methyl)-1H-[1,2,4]triazolo[3,4-b]purine]
11 | 20 to 200 | ≤ 20 | C[C@H]1CN(C(c2ccc(F)cc2)c2ccc(F)cc2)[C@H](CC#N)CN1c1nc2nnc(C3CC3)n2c2scnc12 [Example 15, 2-((2R,5S)-1-(Bis(4-fluorophenyl)methyl)-4-(8-cyclopropylthiazolo[4,5-e][1,2,4]triazolo[4,3-a]pyrimidin-4-yl)-5-methylpiperazin-2-yl)acetonitrile]
12 | ≤ 20 | ≤ 20 | Cc1nc2c(N3C[C@@H](C)N(C(c4ccc(C(F)F)c(F)c4)C4CC(F)(F)C4)C[C@@H]3C)nc3nncn3c2n1C[C@@H]1CCCO1 (stereo partly drawn) [Example 135, 4-((2S,5R)-4-((3,3-Difluorocyclobutyl)(4-(difluoromethyl)-3-fluorophenyl)methyl)-2,5-dimethylpiperazin-1-yl)-2-methyl-1-(((S)-tetrahydrofuran-2-yl)methyl)-1H-[1,2,4]triazolo[3,4-b]purine]
13 | ≤ 20 | ≤ 20 | CC[C@@H]1CN(c2nc3nncn3c3c2nc(C)n3C[C@@H]2CCCO2)[C@@H](C)CN1[C@@H](c1ccc(C(F)(F)F)cc1)C(C)C [Example 129, 4-((2S,5R)-5-Ethyl-2-methyl-4-((R)-2-methyl-1-(4-(trifluoromethyl)phenyl)propyl)piperazin-1-yl)-2-methyl-1-(((S)-tetrahydrofuran-2-yl)methyl)-1H-[1,2,4]triazolo[3,4-b]purine]
14 | ≤ 20 | ≤ 20 | CC[C@H]1CN(C(c2ccc(F)cc2)c2ccc(F)cc2)[C@H](CC)CN1c1nc2nncn2c2c1ncn2CC1CC1 [Example 21, 4-((2S,5R)-4-(Bis(4-fluorophenyl)methyl)-2,5-diethylpiperazin-1-yl)-1-(cyclopropylmethyl)-1H-[1,2,4]triazolo[3,4-b]purine]
15 | ≤ 20 | ≤ 20 | Cc1nc2c(N3C[C@@H](C)N(C(c4ccc(C(F)(F)F)c(Cl)c4)C(C)C)C[C@@H]3C)nc3nncn3c2n1C[C@@H]1CCCO1 (stereo partly drawn) [Example 85, 4-((2S,5R)-4-(1-(3-Chloro-4-(trifluoromethyl)phenyl)-2-methylpropyl)-2,5-dimethylpiperazin-1-yl)-2-methyl-1-(((S)-tetrahydrofuran-2-yl)methyl)-1H-[1,2,4]triazolo[3,4-b]purine]
16 | ≤ 20 | ≤ 20 | Cc1nc2c(N3C[C@@H](C)N([C@H](c4ccc(C(F)(F)F)cc4F)C(C)C)C[C@@H]3C)nc3nncn3c2n1C[C@@H]1CCCO1 [Example 71, 4-((2S,5R)-4-((S)-1-(2-Fluoro-4-(trifluoromethyl)phenyl)-2-methylpropyl)-2,5-dimethylpiperazin-1-yl)-2-methyl-1-(((S)-tetrahydrofuran-2-yl)methyl)-1H-[1,2,4]triazolo[3,4-b]purine]
17 | ≤ 20 | ≤ 20 | CC(C)[C@@H](c1ccc(F)cc1)N1C[C@H](C)N(c2nc3nncn3c3c2ncn3CC2CC2)C[C@H]1C [Example 22, 1-(Cyclopropylmethyl)-4-((2S,5R)-4-((S)-1-(4-fluorophenyl)-2-methylpropyl)-2,5-dimethylpiperazin-1-yl)-1H-[1,2,4]triazolo[3,4-b]purine]
